Km and stoichiometry N data for 4 molecules are collected here from PMC10775177, “Application of the C3-Methyltransferase StspM1 for the Synthesis of the Natural Pyrroloindole Motif” (ACS Catalysis, 2023).

One assay deals with T1, StspM1.
T1 construct: recombinant from E. coli BL21 Gold (DE3), Ni-NTA purified
Briefly: MTase-Glo bioluminescence assay (SAH formation), Michaelis-Menten. The format is biochemical, Streptomyces sp. HPH0547.

Assay [1] has as its target C3-methyltransferase StspM1 from Streptomyces sp. HPH0547 (Streptomyces sp. HPH0547). The assay can be described thus: SEC; size exclusion chromatography to determine the oligomerization state; measured weight 70.5 kDa against 61.8 kDa for a dimer.

Turning to `O=C1N[C@@H](Cc2c[nH]c3ccccc23)C(=O)N[C@H]1Cc1c[nH]c2ccccc12` [7a, LL-cWW], the Km with StspM1 (first methylation, 1.5 μM enzyme, co-substrate SAM fixed at 50 μM, cWW 0.2-200 μM) amounted to 3.86 µM.
Turning to `O=C1N[C@H](Cc2c[nH]c3ccccc23)C(=O)N[C@@H]1Cc1c[nH]c2ccccc12` [7b, DD-cWW], the Km in the assay with StspM1 (first methylation, 1.5 μM enzyme, co-substrate SAM fixed at 50 μM, cWW 0.2-200 μM, compound label misprinted as 7c) was 14.8 µM.
As to `C[C@@]12C[C@H]3C(=O)N[C@@H](Cc4c[nH]c5ccccc45)C(=O)N3[C@@H]1Nc1ccccc12` [compound 14, single-methylated LL-cWW], in the assay with StspM1 (second methylation step), the Michaelis-Menten constant (Km) was 32.5 µM.
In assay [1], “C3-methyltransferase StspM1 from Streptomyces sp. HPH0547 (enzyme)” registered a stoichiometry N of 2.

For orientation: Km means the concentration of substrate that gives half-maximal velocity. Broadly, the stoichiometry N is the number of molecules, sites or subunits per partner or assembly.
